According to patent US11484599B2, “Polymer conjugate vaccines” (The University of Chicago, priority 2015, dated 2022):

How the values were obtained:
[1] = test system: bone marrow derived dendritic cells (BMDCs); experiment: Viability / toxicity in treated BMDCs; type: cell-based; conditions: 10 μM
Source text: Given that DCs are the primary target for the polymer-conjugates, Applicants treated bone marrow derived dendritic cells (BMDCs) with various concentrations of TLR7-MA, p(man-TLR), or the synthetic oligonucleotide CpG, a powerful TLR-9 agonist.

[2] = molecular target: T1, TLR7 (Homo sapiens, UniProt Q9NYK1); experiment: HEK-Blue TLR7-activation reporter cell assay; conditions: media with 2.0 μM agonist (polymer: 2.0 μM of TLR7-MA in polymeric form), 12 h
T1 sequence (Q9NYK1 27-1049): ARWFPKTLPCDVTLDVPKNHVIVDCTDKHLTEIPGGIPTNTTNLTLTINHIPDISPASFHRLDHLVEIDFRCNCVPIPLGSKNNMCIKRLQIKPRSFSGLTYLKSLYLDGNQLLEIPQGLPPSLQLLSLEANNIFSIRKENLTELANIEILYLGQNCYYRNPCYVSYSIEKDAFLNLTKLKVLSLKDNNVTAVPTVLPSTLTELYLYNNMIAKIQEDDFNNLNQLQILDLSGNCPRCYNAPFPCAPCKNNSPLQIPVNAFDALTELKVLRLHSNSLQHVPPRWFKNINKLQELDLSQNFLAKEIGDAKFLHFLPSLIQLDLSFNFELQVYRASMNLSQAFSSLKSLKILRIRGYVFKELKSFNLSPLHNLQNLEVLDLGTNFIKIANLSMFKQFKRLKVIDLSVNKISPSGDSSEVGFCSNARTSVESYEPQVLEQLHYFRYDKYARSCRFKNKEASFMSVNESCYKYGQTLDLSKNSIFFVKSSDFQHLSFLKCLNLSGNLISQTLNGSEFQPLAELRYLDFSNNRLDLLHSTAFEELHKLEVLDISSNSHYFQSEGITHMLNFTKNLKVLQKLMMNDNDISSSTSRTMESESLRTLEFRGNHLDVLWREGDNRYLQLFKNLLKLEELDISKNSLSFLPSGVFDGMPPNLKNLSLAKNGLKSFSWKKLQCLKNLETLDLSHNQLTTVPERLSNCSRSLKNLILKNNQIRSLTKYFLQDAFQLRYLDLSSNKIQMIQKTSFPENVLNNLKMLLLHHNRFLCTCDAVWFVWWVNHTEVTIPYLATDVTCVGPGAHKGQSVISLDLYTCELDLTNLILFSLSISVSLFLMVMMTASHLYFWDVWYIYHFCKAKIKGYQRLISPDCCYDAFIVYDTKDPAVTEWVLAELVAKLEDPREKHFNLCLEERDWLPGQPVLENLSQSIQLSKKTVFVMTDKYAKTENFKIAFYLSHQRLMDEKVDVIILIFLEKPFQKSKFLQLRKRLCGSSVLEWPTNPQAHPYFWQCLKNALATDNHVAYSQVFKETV

[3] = test system: lymph node resident DC subsets; experiment: Uptake of fluorescently labeled OVA by lymph node DC subsets after i.d. injection; type: in vivo, mice; conditions: 12 h
Procedure: Mice were treated with an intradermal injection of fluorescently labeled OVA or fluorescently labeled OVA conjugated to either p(Man) or p(Man-TLR). After 12 h, the lymph nodes of the animals were harvested and the cells of the lymph nodes were analyzed for fluorescently labeled OVA content via flow cytometry. Conjugation of OVA to p(Man-TLR) increases the uptake of OVA by CD8+ cross-presenting DCs (a.), CD4+ activating DCs (b.), CD4−/CD8− lymph node resident DCs (c.), and conventional dermal DCs (d.).
It is contemplated that conjugating p(Man-TLR) to antigens will improve their uptake by DCs and increased DC activation. […] After 12 h, the lymph node resident DC subsets of these animals were analyzed for fOVA.

[4] = test system: circumsporozite protein (CSP) from Plasmodium falciparum; experiment: Example 12: vaccination with malaria antigen CSP formulations, cellular and humoral response; type: in vivo, mice
Procedure: FIG. 17: To characterize the response to an actual vaccinal antigen, and to compare to an advanced clinical adjuvant, the inventors made the polymer conjugate formulation with the P. falciparum antigen CSP (the full-length protein).
FIG. 18: To characterize humoral responses to the CSP-p(Man-TLR) polymer conjugate formulation, Tfh cells were characterized in the spleen and IgG concentrations were measured in the blood.
The inventors benchmarked the performance of antigen-p(Man-TLR) conjugates against other vaccine adjuvant formulations that have been reported to produce effective immune responses, using a malaria antigen, specifically circumsporozite protein (CSP) from Plasmodium falciparum. Mice were treated on days 0 and 21 via intradermal injection into the 4 footpads with CSP-p(Man-TLR), CSP and MPLA/QS-21 liposomes (AS01E), CSP and the adjuvant R848, CSP and poly(I:C), or saline (Vehicle). AS01E is used in a clinical malaria vaccine formulation. All animals treated with formulations containing CSP received 10 μg of CSP. Animals treated with CSP-p(Man-TLR) received 20 μg TLR agonist in the polymeric form. Animals treated with AS01E received 2.5 μg of QS21. Animals treated with CSP and R848 were treated with 20 μg of R848. Animals treated with CSP and poly(I:C) received 15 μg poly(I:C). […] CSP-p(Man-TLR) induced a robust humoral response.

[5] = test system: CSP peptide stretches; experiment: Breadth of IgG response on arrays of peptides from the sequence of CSP; type: in vivo, mice

Molecule: C=C(C)C(=O)NCCOC(=O)NCc1ccc(Cn2c(COCC)nc3c(N)nc4ccccc4c32)cc1 [TLR7-MA, 2-methacrylamidoethyl 4-((4-amino-2-(ethoxymethyl)-1H-imidazo[4,5-c]quinolin-1-yl)methyl)benzylcarbamate]
- cell viability / toxicity [1]: no significant decrease in viability
- increase in TLR7 activation [2]: 4 fold

Molecule: fOVA-p(Man-TLR): fluorescently labeled Ovalbumin (fOVA) conjugated to p(Man-TLR)
- fOVA positive CD8+ cross presenting DCs vs fOVA ([3]; FIG. 9A): More than twice as many
- increase in number of CD4 activating DCs positive for fOVA vs fOVA ([3]; FIG. 9B): 3 fold
- targeting of double negative DCs and dermal conventional DCs vs free fOVA ([3]; FIG. 9C-D): able to target both double negative DCs and dermal conventional DCs
- OVA uptake by DCs vs fOVA ([3]; lymph node DCs): took up significantly more OVA

B1: CSP-p(Man-TLR): P. falciparum circumsporozite protein (CSP, full-length) conjugated to p(Man-TLR) (conjugate, UniProt P02893 1-412, looked up)
chain: MMRKLAILSVSSFLFVEALFQEYQCYGSSSNTRVLNELNYDNAGTNLYNELEMNYYGKQENWYSLKKNSRSLGENDDGNNNNGDNGREGKDEDKRDGNNEDNEKLRKPKHKKLKQPGDGNPDPNANPNVDPNANPNVDPNANPNVDPNANPNANPNANPNANPNANPNANPNANPNANPNANPNANPNANPNANPNANPNANPNANPNVDPNANPNANPNANPNANPNANPNANPNANPNANPNANPNANPNANPNANPNANPNANPNANPNANPNANPNANPNANPNKNNQGNGQGHNMPNDPNRNVDENANANNAVKNNNNEEPSDKHIEQYLKKIKNSISTEWSPCSVTCGNGIQVRIKPGSANKPKDELDYENDIEKKICKMEKCSSVFNVVNSSIGLIMVLSFLFLN
modifications: full-length p(Man-TLR) polymer conjugate
- IFNγ+CD8+ cells in the lymph nodes vs CSP and R848 and CSP and AS01E ([4]; days 0 and 21): induced more IFNγ+CD8+ cells in the lymph nodes
- splenic T follicular helper cells and total IgG response in the blood vs other treatments ([4]; days 0 and 21): generated more splenic T follicular helper cells and a more robust total IgG response in the blood
- IFNγ+ and TNFα+ CD4+ T cells in the spleen vs other therapies ([4]; intradermal, 4 footpads, days 0 and 21, 10 μg CSP, 20 μg TLR agonist): induces more IFNγ+ and TNFα+ cCD4+ T cells in the spleen
- highest value in the plot of antibody response to CSP regions ([5]; FIG. 21): approx. 60000 units
- breadth of IgG response ([5]; antibodies binding to CSP peptide arrays): induced a broader and/or qualitatively distinct IgG response
